The text below walks through data of US20240158348A1, “HERBICIDAL CYCLIC AMIDES N-SUBSTITUTED WITH A HALOALKYLSULFONYLANILIDE GROUP” (FMC Corporation, priority 2021, published 2024).

What all share (assay type): in vivo
For assay [1], the system named is blackgrass (Alopecurus myosuroides). The assay can be described thus: Test C preemergence, blackgrass. The conditions noted are these: 0 is no effect, 100 is complete control. The essentials:
(§1)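 Herbicidal effect was estimated visually on a 0–100 scale 10 or 12 days after spraying. Formulation: non-phytotoxic solvent mixture with surfactant. Timing: directed soil spray after sowing, or postemergence on seedlings bearing one or two leaves.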

In assay [2] the test system is oat, wild (wild oat, Avena fatua). The assay can be described thus: Test C preemergence, wild oat. The conditions noted are these: 0 is no effect, 100 is complete control. The method in brief:
as §1

The test system of assay [3] is pigweed, palmer (palmer amaranth, Amaranthus palmeri). The assay can be described thus: Test C preemergence, palmer amaranth. The following applies: 0 is no effect, 100 is complete control. The essentials: as §1
In assay [4] the test system is ragweed (common ragweed, Ambrosia artemisiifolia). The assay can be described thus: Test C preemergence, ragweed. The following applies: 0 is no effect, 100 is complete control. The method in brief:
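Pre: soil sprayed at seeding. Post: seedlings treated at 1–2 leaves (2–10 cm). Vehicle non-phytotoxic solvent mix with surfactant; loam–sand medium; greenhouse; visual injury read at 10 or 12 days, scale 0–100.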

The next assay relates to soybean (Glycine max). The assay can be described thus: Test C preemergence, soybean. The following applies: 0 is no effect, 100 is complete control. The essentials: as §1
The subject of a further assay is corn (Zea mays). The assay can be described thus: Test C postemergence, corn. The following applies: for Corn plant response rating: visual injury, 0 to 100 scale (0 no effect, 100 complete control); for Plant response rating (0 to 100 scale), Corn: 0 is no effect, 100 is complete control.
For assay [5], the system named is goosegrass (Eleusine indica). The assay can be described thus: Test C postemergence, goosegrass. The following applies: for Goosegrass plant response rating: visual injury, 0 to 100 scale (0 no effect, 100 complete control); for Plant response rating (0 to 100 scale), Goosegrass: 0 is no effect, 100 is complete control. The essentials: as §1
In assay [6] the test system is horseweed (Erigeron canadensis). Kind of assay: Test C postemergence, horseweed. The conditions noted are these: for Horseweed plant response rating: visual injury, 0 to 100 scale (0 no effect, 100 complete control); for Plant response rating (0 to 100 scale), Horseweed: 0 is no effect, 100 is complete control. The essentials:
as §1

Assay [7] concerns ducksalad (Heteranthera limosa). Kind of assay: Test D flooded paddy test, ducksalad. Further details: key: 0 = no effect, 100 = complete control. The conditions noted are these: 250 g ai/ha, Flood; applied to paddy water at 2-leaf stage; visual rating after 13 days; scale 0 (no effect) to 100 (complete control). The method in brief: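 Test compounds applied directly to paddy water after pots were flooded to 3 cm above soil, with plants at 2-leaf stage; depth held throughout. Greenhouse for 13 days, then visual rating versus controls on 0–100 scale (0 no effect, 100 complete control); dash means no result.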

For the compound `Cc1cc(C)c(N2CCC(OCC3CC3(F)F)C2=O)cc1NS(=O)(=O)C(F)(F)F` (stereo not shown) [Compound 41], the “Plant response rating (0 to 100 scale), Blackgrass” value (“Plant response rating … Blackgrass” below) is reported as 80 in [1] (31 g ai/ha Preemergence) and 100 in assay [1] (125 g ai/ha Preemergence). Moreover, the “Plant response rating (0 to 100 scale), Oat, Wild” value (“Plant response rating … Wild” below) came out at 60 in [2] (31 g ai/ha Preemergence) and 100 in assay [2] (125 g ai/ha Preemergence). In addition, the “Plant response rating (0 to 100 scale), Pigweed, Palmer” value (from here on “Plant response rating … Palmer”) in assay [3] (31 g ai/ha Preemergence) and in assay [3] (125 g ai/ha Preemergence) was 100 throughout. For the same compound, the “Plant response rating (0 to 100 scale), Ragweed” value (“Plant response rating … Ragweed” for short) in assay [4] (31 g ai/ha Preemergence) is recorded as 70; in [4] (125 g ai/ha Preemergence) it was 90. Further, the “Plant response rating (0 to 100 scale), Soybean” value (from here on “Plant response rating … Soybean”) in the assay with soybean (Glycine max) (31 g ai/ha Preemergence) is 60; with soybean (Glycine max) (125 g ai/ha Preemergence) it was 100. Besides, the “Corn plant response rating” value was 40 with corn (Zea mays) (31 g ai/ha Postemergence) and 90 with corn (Zea mays) (125 g ai/ha Postemergence). Besides, the “Goosegrass plant response rating” value in assay [5] (31 g ai/ha Postemergence) and in [5] (125 g ai/ha Postemergence) was 90 each time. For the same compound, the “Horseweed plant response rating” value in assay [6] (31 g ai/ha Postemergence) was determined as 70; in [6] (125 g ai/ha Postemergence) it was 100. Also, in [7], the “Plant response rating, Ducksalad” value was 60.
As to `Cc1cc(C)c(N(C(=O)OC(C)C)S(=O)(=O)C(F)(F)F)cc1N1CCC(OC2CC2)C1=O` (stereo not shown) [Compound 18], the “Plant response rating … Blackgrass” value in assay [1] (31 g ai/ha Preemergence) and in assay [1] (125 g ai/ha Preemergence) was 0 each time. The “Plant response rating … Wild” value in [2] (31 g ai/ha Preemergence) and in [2] (125 g ai/ha Preemergence) was 0 each time. In addition, the “Plant response rating … Palmer” value came out at 0 in assay [3] (31 g ai/ha Preemergence) and 20 in assay [3] (125 g ai/ha Preemergence). Besides, the “Plant response rating … Ragweed” value in assay [4] (31 g ai/ha Preemergence) and in assay [4] (125 g ai/ha Preemergence) was 0 throughout. Also, the “Plant response rating … Soybean” value in the assay with soybean (Glycine max) (31 g ai/ha Preemergence) came to 0; in the assay with soybean (Glycine max) (125 g ai/ha Preemergence) it was 30. In the assay with corn (Zea mays) (31 g ai/ha Postemergence), the “Corn plant response rating” value worked out at 0. For the same compound, the “Plant response rating (0 to 100 scale), Corn” value in the assay with corn (Zea mays) (125 g ai/ha Postemergence) worked out at 0. Besides, the “Goosegrass plant response rating” value in [5] (31 g ai/ha Postemergence) amounted to 0. In addition, in assay [5] (125 g ai/ha Postemergence), the “Plant response rating (0 to 100 scale), Goosegrass” value came to 0. For the same compound, the “Horseweed plant response rating” value in assay [6] (31 g ai/ha Postemergence) is recorded as 0. Besides, in assay [6] (125 g ai/ha Postemergence), the “Plant response rating (0 to 100 scale), Horseweed” value worked out at 0. Also, in [7], the “Plant response rating, Ducksalad” value is on record as 0.
With `Cc1c(N2CCC(OC3CC3)C2=O)cc(N(COC(=O)C(C)(C)C)S(=O)(=O)C(F)(F)F)c(C)c1F` (stereo not shown) [Compound 23], the results for the “Plant response rating … Blackgrass” value in assay [1] (31 g ai/ha Preemergence) and in assay [1] (125 g ai/ha Preemergence) were 0 and 10, respectively. Moreover, the “Plant response rating … Wild” value was 40 in [2] (31 g ai/ha Preemergence) and 90 in assay [2] (125 g ai/ha Preemergence). Also, the “Plant response rating … Palmer” value was 30 in [3] (31 g ai/ha Preemergence) and 100 in assay [3] (125 g ai/ha Preemergence). For the same compound, the “Plant response rating … Ragweed” value is listed as 30 in assay [4] (31 g ai/ha Preemergence) and 90 in assay [4] (125 g ai/ha Preemergence). Also, the “Plant response rating … Soybean” value in the assay with soybean (Glycine max) (31 g ai/ha Preemergence) stood at 30; in the assay on soybean (Glycine max) (125 g ai/ha Preemergence), 40. Further, the “Corn plant response rating” value in the assay with corn (Zea mays) (31 g ai/ha Postemergence) amounted to 30. In the assay with corn (Zea mays) (125 g ai/ha Postemergence), the “Plant response rating (0 to 100 scale), Corn” value is recorded as 90. Further, the “Goosegrass plant response rating” value in [5] (31 g ai/ha Postemergence) turned out to be 30. Further, in [5] (125 g ai/ha Postemergence), the “Plant response rating (0 to 100 scale), Goosegrass” value turned out to be 90. Moreover, the “Horseweed plant response rating” value in assay [6] (31 g ai/ha Postemergence) came out at 80. Moreover, the “Plant response rating (0 to 100 scale), Horseweed” value in assay [6] (125 g ai/ha Postemergence) was 90. Also, in [7], the “Plant response rating, Ducksalad” value is on record as 80.
For the compound `CC(=O)N(c1cc(N2CCC(OC3CC3)C2=O)c(C)cc1C)S(=O)(=O)C(F)(F)F` (stereo not shown) [Compound 17], the results for the “Plant response rating … Blackgrass” value in assay [1] (31 g ai/ha Preemergence) and in assay [1] (125 g ai/ha Preemergence) were 80 and 90, respectively. The “Plant response rating … Wild” value was determined as 90 in [2] (31 g ai/ha Preemergence) and 100 in [2] (125 g ai/ha Preemergence). Also, the entries for the “Plant response rating … Palmer” value in assay [3] (31 g ai/ha Preemergence) and in [3] (125 g ai/ha Preemergence) were 80 and 100, respectively. Moreover, the “Plant response rating … Ragweed” value in assay [4] (31 g ai/ha Preemergence) stood at 80; in assay [4] (125 g ai/ha Preemergence) it was 90. Moreover, the “Plant response rating … Soybean” value is recorded as 80 with soybean (Glycine max) (31 g ai/ha Preemergence) and 100 in the assay on soybean (Glycine max) (125 g ai/ha Preemergence). Besides, the “Corn plant response rating” value in the assay with corn (Zea mays) (31 g ai/ha Postemergence) is 90. Besides, the “Plant response rating (0 to 100 scale), Corn” value in the assay with corn (Zea mays) (125 g ai/ha Postemergence) amounted to 90. In assay [5] (31 g ai/ha Postemergence), the “Goosegrass plant response rating” value was determined as 90. The “Plant response rating (0 to 100 scale), Goosegrass” value in [5] (125 g ai/ha Postemergence) was 90. For the same compound, the “Horseweed plant response rating” value in assay [6] (31 g ai/ha Postemergence) is 70. The “Plant response rating (0 to 100 scale), Horseweed” value in [6] (125 g ai/ha Postemergence) amounted to 100. Besides, the “Plant response rating, Ducksalad” value in [7] is 95.
Turning to `Cc1cc(C)c(N2CCC(OCC3CCCC3)C2=O)cc1NS(=O)(=O)C(F)(F)F` (stereo not shown) [Compound 57], the “Plant response rating … Blackgrass” value in [1] (31 g ai/ha Preemergence) amounted to 40; in [1] (125 g ai/ha Preemergence), 80. The “Plant response rating … Wild” value in assay [2] (31 g ai/ha Preemergence) was found to be 20; in assay [2] (125 g ai/ha Preemergence), 80. Also, the “Plant response rating … Palmer” value in [3] (31 g ai/ha Preemergence) and in assay [3] (125 g ai/ha Preemergence) was 100 each time. The “Plant response rating … Ragweed” value in assay [4] (31 g ai/ha Preemergence) is reported as 0; in assay [4] (125 g ai/ha Preemergence), 80. Moreover, the “Plant response rating … Soybean” value is recorded as 70 in the assay with soybean (Glycine max) (31 g ai/ha Preemergence) and 90 in the assay with soybean (Glycine max) (125 g ai/ha Preemergence). Also, the “Corn plant response rating” value with corn (Zea mays) (31 g ai/ha Postemergence) is 0; in the assay on corn (Zea mays) (125 g ai/ha Postemergence), 40. Also, the “Goosegrass plant response rating” value was 70 in [5] (31 g ai/ha Postemergence) and 90 in [5] (125 g ai/ha Postemergence). Besides, the “Horseweed plant response rating” value in assay [6] (31 g ai/ha Postemergence) amounted to 0; in [6] (125 g ai/ha Postemergence), 80. Further, the “Plant response rating, Ducksalad” value in assay [7] is 90.
